Assay results taken from patent US5763457A, “Method for treating anxiety” (Eli Lilly and Company, priority 1996, dated 1998).
Like-named read-outs stand apart in the source and are kept apart here.

What was measured:
[1] = target: muscarinic acetylcholine receptors; experiment: inhibition of specific binding of ^3 H-Oxotremorine-M (^3 H-Oxo); conditions: ^3 H-Oxotremorine 1.0 nM, rat cortex, 30 min, 25° C.
From the text: The pharmacological properties of the compounds of the invention can be illustrated by determining their capability to inhibit the specific binding of ^3 H-Oxotremorine-M (^3 H-Oxo). Birdsdall N. J. M., Hulme E. C., and Burgen A. S. V. (1980). "The Character of Muscarinic Receptors in Different Regions of the Rat Brain". Proc. Roy. Soc. London (Series B) 207,1.
^3 H-Oxo labels muscarinic receptor in the CNS (with a preference for agonist domains of the receptors). Three different sites are labeled by ^3 H-Oxo. […] Using the present experimental conditions only the high and medium affinity sites are determined.
The inhibitory effects of compounds on ^3 H-oxo binding reflects the affinity for muscarinic acetylcholine receptors.
(§1) All preparations are performed at 0°-4° C. unless otherwise indicated. Fresh cortex (0.1-1 g) from male Wistar rats (150-250 g) is homogenized for 5-10 s in 10 mL 20 nM Hepes pH: 7.4, with an Ultra-Turrax homogenizer. The homogenizer is rinsed with 10 mL of buffer and the combined suspension centrifuged for 15 min. at 40,000×g. The pellet is washed three times with buffer. In each step the pellet is homogenized as before in 2×10 mL of buffer and centrifuged for 10 min. at 40,000×g.
The final pellet is homogenized in […] Hepes pH: 7.4 (100 mL per g of original tissue) and used for binding assay. Aliquots of 0.5 mL is added 25 μL of test solution and 25 μL of ^3 H-Oxotremorine (1.0 nM, final concentration) mixed and incubated for 30 min. at 25° C. Non-specific binding is determined in triplicate using arecoline (1 μg/mL, final concentration) as the test substance. After incubation samples are added 5 mL of ice-cold buffer and poured directly onto Whatman GF/C glass fiber filters under suction and immediately washed 2 times with 5 mL of ice-cold buffer. The amount of radioactivity on the filters are determined by conventional liquid scintillation counting. Specific binding is total binding minus non specific binding.
Test substances are dissolved in 10 mL water (if necessary heated on a steam-bath for less than 5 min.) at a concentration of 2.2 mg/mL. 25-75% inhibition of specific binding must be obtained before calculation of IC50. The test value will be given as IC50 (the concentration (nM) of the test substance which inhibits the specific binding of ^3 H-oxo by 50%). IC50 =(applied test substance concentration) x([…])nM where Co is specific binding in control assays and Cx is the specific binding in the test assay. (The calculations assume normal mass-action kinetics).

[2] = target: T1, muscarinic receptors (M1 -site, pirenzepine sensitive site) (Rattus norvegicus, UniProt P08482); experiment: inhibition of ^3 HPRZ (pirenzepine, [N-methyl-^3 H]) binding to rat cerebral cortex membranes; conditions: ^3 HPRZ 1.0 nM, 60 min, 20° C.
T1 construct: from tissue; host or cells: fresh cerebral cortex membranes, male Wistar rat
T1 sequence (P08482 1-460): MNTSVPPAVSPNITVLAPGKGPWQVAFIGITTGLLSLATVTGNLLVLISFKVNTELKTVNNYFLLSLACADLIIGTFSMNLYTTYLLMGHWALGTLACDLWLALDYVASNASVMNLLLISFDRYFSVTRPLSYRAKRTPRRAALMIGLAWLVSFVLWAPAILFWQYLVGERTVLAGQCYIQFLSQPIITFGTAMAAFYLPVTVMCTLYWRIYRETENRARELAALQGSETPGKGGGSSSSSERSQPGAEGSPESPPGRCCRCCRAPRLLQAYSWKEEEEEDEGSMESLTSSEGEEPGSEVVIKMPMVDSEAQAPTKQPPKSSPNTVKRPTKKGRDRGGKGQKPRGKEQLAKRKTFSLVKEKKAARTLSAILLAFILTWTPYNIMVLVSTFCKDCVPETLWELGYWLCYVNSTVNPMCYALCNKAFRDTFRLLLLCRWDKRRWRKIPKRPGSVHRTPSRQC
Description: Furthermore the pharmacological properties of the compounds of the invention can also be illustrated by determining their capability to inhibit ^3 HPRZ (pirenzepine, [N-methyl-^3 H]) binding to rat cerebral cortex membranes.
Pirenzepine binds selectively to subtype of muscarinic receptors. Historically the type is named the M1 -site, whereas pirenzepine sensitive site would be more appropriate.
as §1, with “(0.1-1 9)” for “(0.1-1 g)”, “rats (150-200” for “rats (150-250”, “20 mM” for “20 nM”, “with 2×10” for “with 10”, “in 3×10” for “in 2×10”
The final pellet is homogenized in 20 mM Hepes pH: 7.4 (100 mL per g of original tissue) and used for binding assay. Aliquots of 0.5 mL is added 20 μL of test solution and 25 μL of ^3 HPRZ (1.0 nM, final conc.), mixed and incubated for 60 min. at 20° C. Non-specific binding is determined in triplicate using atropine (1.0 μg/mL, final conc.) as the test substance. After incubation samples are added 5 mL of ice-cold buffer and poured directly onto Whatman GF/C glass fiber filters under suction and immediately washed 2 times with 5 mL of ice-cold buffer. The amount of radioactivity on the filters are determined by conventional liquid scintillation counting. Specific binding is total binding minus non-specific binding.
Test substances are dissolved in 10 mL water, at a concentration of 0.22 mg/mL. 25-75% inhibition of specific binding must be obtained before calculation of IC50.
The test value will be given as IC50 (the concentration (nM) of the test substance which inhibits the specific binding of ^3 HPRZ by 50%). IC50 =(applied test substance concentration) x(Cx /Co -Cx)nM where Co is specific binding in control assays and Cx is the specific binding in the test assay. (The calculations assume normal mass-action kinetics).

5-HT1A receptor = conditions: literature; cited from earlier work
dopamine receptors = conditions: literature; cited from earlier work
[3] = in vivo; cited from earlier work
[4] = target: muscarinic receptor in the CNS; conditions: cited from earlier work
M2 -sites = conditions: cited from earlier work
M1 -sites = conditions: cited from earlier work

SMILES | IC50 [2] [nM] | also measured
CCCOc1nccnc1OC1CN2CCC1CC2 (racemic) [Compound 4] | 21 | IC50 [1]: 25 nM
CCCSc1cncc(O[C@H]2CN3CCC[C@@H]2C3)n1 (relative stereo) [Compound 39] | 80 | –
O=C1CC2(CCCC2)CC(=O)N1CCCCN1CCN(c2ncccn2)CC1 [Buspirone] | – | receptor interaction (5-HT1A receptor): interacts with reasonable potency only at the 5-HT1A and dopamine receptors; receptor interaction (dopamine receptors): interacts with reasonable potency only at the 5-HT1A and dopamine receptors
COc1nccnc1OC1CN2CCC1CC2 (racemic) [Compound 10] | 223 | –
CCCCCOc1nccnc1OC1CN2CCC1CC2 (racemic) [Compound 9] | 30 | –
CCCC(C)(COC(N)=O)COC(N)=O [meprobamate] | – | side effects [3]: numerous side effects such as potential for abuse and addiction or potentiation of the effects of ethanol
CCCCOc1nonc1OC1CN2CCC1CC2 (racemic) [Compound 1] | 56 | IC50 [1]: 81 nM
CC(C)CCSc1nccnc1O[C@H]1CN2CCC[C@@H]1C2 (relative stereo) [Compound 37] | 0.76 | –
CCCCCSc1nccnc1O[C@H]1CN2CCC[C@@H]1C2 (relative stereo) [Compound 30] | 0.82 | –
FC(F)(F)Oc1ccc(CSc2nccnc2O[C@H]2CN3CCC[C@@H]2C3)cc1 (relative stereo) [Compound 38] | 3.3 | –
CC(C)CSc1nccnc1O[C@H]1CN2CCC[C@@H]1C2 (relative stereo) [Compound 31] | 1.7 | –
C=CCSc1nccnc1O[C@H]1CN2CCC[C@@H]1C2 (relative stereo) [Compound 36] | 5.8 | –
CCSc1nccnc1O[C@H]1CN2CCC[C@@H]1C2 (relative stereo) [Compound 32] | 4 | –
FC(F)(F)CCCSc1nccnc1O[C@H]1CN2CCC[C@@H]1C2 (relative stereo) [Compound 35] | 0.54 | –
C[N+](C)(C)CC#CCN1CCCC1=O [^3 H-Oxo, ^3 H-Oxotremorine-M] | – | Kd ([4]; first (high affinity) site): 1.8 nM; Kd ([4]; second (medium affinity) site): 20 nM; Kd ([4]; third site, not determined under present conditions, read-out: affinity): 3000 nM
CCSc1nccnc1OC1CN2CCC1CC2 (racemic) [Compound 14] | 21 | –
CCCCCCSc1nccnc1OC1CN2CCC1CC2 (racemic) [Compound 12] | 13 | –
C/C=C/CSc1nccnc1O[C@H]1CN2CCC[C@@H]1C2 (relative stereo) [Compound 34] | 0.66 | –
CCCCOc1nccnc1O[C@H]1CN2CCC[C@@H]1C2 (relative stereo) [Compound 23] | 2.7 | –
c1cnc(O[C@H]2CN3CCC[C@@H]2C3)cn1 [Compound 21] | 123 | –
CN1CCN(CC(=O)N2c3ccccc3C(=O)Nc3cccnc32)CC1 [pirenzepine, pirenzepine, [N-methyl-^3 H]] | – | interaction with M2 -sites (M2 -sites): also interact with M2 -sites; selectivity (M1 -sites): selective for M1 -sites
CCCCCCOc1nccnc1OC1CN2CCC1CC2 (racemic) [Compound 5] | 32 | IC50 [1]: 40 nM
COCCSc1nccnc1O[C@H]1CN2CCC[C@@H]1C2 (relative stereo) [Compound 41] | 1.6 | –
CSc1nccnc1OC1CN2CCC1CC2 (racemic) [Compound 13] | 42 | –

SMILES | IC50 [2] [nM] | also measured
Cc1nccnc1O[C@H]1CN2CCC[C@@H]1C2 (relative stereo) [Compound 20] | 246 | –
C(=Cc1ccccc1)CSc1nccnc1O[C@H]1CN2CCC[C@@H]1C2 (relative stereo) [Compound 42] | 4.8 | –
CC(C)=CCCSc1nccnc1O[C@H]1CN2CCC[C@@H]1C2 (relative stereo) [Compound 43] | 2.2 | –
c1cnc(OC2CN3CCC2CC3)cn1 (racemic) [Compound 8] | > 1000 | –
CCCSc1nccnc1O[C@H]1CN2CCC[C@@H]1C2 (relative stereo) [Compound 29] | 0.68 | –
CCCCCCCSc1nccnc1OC1CN2CCC1CC2 (racemic) [Compound 16] | 23 | –
FC(F)(F)CSc1cncc(O[C@H]2CN3CCC[C@@H]2C3)n1 (relative stereo) [Compound 40] | 17 | –
CN(C)CCOc1cnccn1 [Compound 26] | > 1000 | –
CCCCSc1nccnc1OCC[N+](C)(C)C [Compound 18] | 5.4 | –
CCOc1nccnc1OC1CN2CCC1CC2 (racemic) [Compound 11] | 53 | –
CCCSc1nccnc1OC1CN2CCC1CC2 (racemic) [Compound 15] | 13 | –
C[N+](C)(C)CCOc1cnccn1 [Compound 27] | > 1000 | –
CCCCSc1nccnc1OC1CN2CCC1CC2 (racemic) [Compound 6] | 0.9 | IC50 [1]: 2.5 nM
CN1CCC[C@H]1COc1cnccn1 [Compound 28] | 5710 | –
Clc1cncc(O[C@H]2CN3CCC[C@@H]2C3)n1 (relative stereo) [Compound 22] | 52 | –
CCCCSc1nccnc1OCCN(C)C [Compound 17] | 4.5 | –
Clc1nccnc1OC1CN2CCC1CC2 (racemic) [Compound 2] | 253 | IC50 [1]: 374 nM
CN1[C@@H]2CC[C@H]1C[C@@H](Oc1cnccn1)C2 [Compound 25] | 680 | –
CCCCCSc1nccnc1OC1CN2CCC1CC2 (racemic) [Compound 7] | 6.7 | –
CCCCOc1nccnc1OC1CN2CCC1CC2 (racemic) [Compound 3] | 14.5 | IC50 [1]: 19.3 nM
FC(F)(F)CSc1nccnc1O[C@H]1CN2CCC[C@@H]1C2 (relative stereo) [Compound 33] | 0.7 | –
CCCCSc1nccnc1O[C@H]1CN2CCC[C@@H]1C2 (relative stereo) [Compound 24] | 0.54 | –
Clc1nccnc1O[C@H]1CN2CCC[C@@H]1C2 (relative stereo) [Compound 19] | 108 | –
